This note sets out measurements from patent US10119168B2, “Methods for the treatment of kidney fibrosis” (priority 2014, dated 2018).

The test system of the data set is mouse kidney. As to the kind of experiment: Folic acid nephropathy model, High dose vs Low dose FA (histology, qRT-PCR). The settings on record: High dose group compared to Low dose group, day 14. On the procedure: Mice were sacrificed at 1, 2, 3, 7 and 14 days following administration. […] All mice were sacrificed at 14 days.
Formalin fixed, paraffin embedded kidney sections were Masson Trichrome's stained and evaluated by a renal pathologist under a light microscope in blinded fashion relative to sample group. Percent area of fibrosis relative to the total section area was evaluated. Sirius red staining of the […] sections was performed at the Michigan State University Investigative Histopathology Laboratory.
Total RNA was extracted from frozen kidney tissue using TRIzol reagent (Invitrogen). Following RNA concentration measurement by NanoDrop spectrophotometer (Thermo Fischer Scientific), 1 μg RNA was used for cDNA preparation using QuantiTect Reverse Transcription Kit from Qiagen (Valencia, Calif.). qRT-PCR using QuantiFast SYBR Green PCR Kit (Qiagen) was performed in 384-well plates on an Applied Biosystems 7900HT Fast Real-Time PCR System instrument with the following temperature profile: 3 min enzyme activation at 95° C. followed by 40 cycles of 95° C. for 10 s, and 55° C. for 30 s. Primer pairs used are listed in Supplementary Table 1. Gapdh was used as reference gene for normalization. The SDS 2.4 software (Applied Biosystems) was used to compute the threshold cycle (Cq) and the relative expression for an mRNA was assessed using the 2^−ΔCq method.

For the compound `Nc1nc2ncc(CNc3ccc(C(=O)N[C@@H](CCC(=O)O)C(=O)O)cc3)nc2c(=O)[nH]1` [FA, folic acid], the “candidate fibrosis markers mRNA levels” value is reported as “Nine out of ten candidate fibrosis markers showed significantly (p<0.05) higher mRNA levels”.
